According to paper PMC3341351, “Down-Regulation of GABAA Receptor via Promiscuity with the Vasoactive Peptide Urotensin II Receptor. Potential Involvement in Astrocyte Plasticity” (PLoS ONE, 2012):

Experiments:
Type in all cases: cell-based
[1] = tested on: GABAAR (β3^HA) at the plasma membrane of CHO co-expressing human UT; assay: GABAAR internalization by immunofluorescence in CHO-UT-GABAAR (α2β3^HAγ2); conditions: hUII 10^−8 M, Iso 10^−4 M or both; 60 min (Figure 9 legend); mean ± SEM, 3 to 18 cells
Experimental: For double-immunofluorescence, non-permeabilized living CHO cells expressing UT and/or α2β3 ^HAγ2 GABAA receptors were washed two times in PBS, and incubated with monoclonal mouse anti-c-myc and rabbit polyclonal anti-HA (1∶200, Santa-cruz) for 1 h on ice in DMEM. […] After several rinses in PBS, cells were fixed in 4% paraformaldehyde at 4°C for 20 min, washed three times in PBS and then incubated at RT for 2 h with appropriate secondary antibodies, i.e. Alexa-488- and 594-conjugated donkey anti-mouse IgGs diluted 1∶300 (Invitrogen). After washing, coverslips were mounted in Eukitt (VWR International, Strasbourg, France).
(§1) All preparations were examined using a confocal laser-scanning microscope (Leica, Heidelberg, Germany) equipped with a Diaplan optical system, a UV laser (excitation wavelength 405 nm) and argon/krypton ion (excitation wavelengths 488/594 nm) laser.

[2] = tested on: GABAAR (β3^HA) at the plasma membrane, no UT; assay: GABAAR internalization by immunofluorescence in CHO expressing GABAAR alone; conditions: hUII 10^−8 M, Iso 10^−4 M or both
Experimental: For double-immunofluorescence, non-permeabilized living CHO cells expressing UT and/or α2β3 ^HAγ2 GABAA receptors were washed two times in PBS, and incubated with monoclonal mouse anti-c-myc and rabbit polyclonal anti-HA (1∶200, Santa-cruz) for 1 h on ice in DMEM. Excess antibody was removed and cells were incubated with the different receptor agonists for 30 min at RT. After several rinses in PBS, cells were fixed in 4% paraformaldehyde at 4°C for 20 min, washed three times in PBS and then incubated at RT for 2 h with appropriate secondary antibodies, i.e. Alexa-488- and 594-conjugated donkey anti-mouse IgGs diluted 1∶300 (Invitrogen). After washing, coverslips were mounted in Eukitt (VWR International, Strasbourg, France).
as §1

UT in human U87 glioma = assay: Flow cytometry of cell surface UT in U87 glioma; conditions: hUII 10^−8 M, 30 min
Experimental: (§2) The human cell line from glioblastoma U87 was obtained from the American Type Culture Collection (LGC Standards, Molsheim, France). U87 cells were maintained in DMEM containing 10% FBS and 1% sodium pyruvate. NHA-Astrocytes (Lonza, Walkersville, MD, USA) were cultivated in DMEM culture medium supplemented with 2 mM glutamine, 5 mM HEPES, 1% non essential amino acids, 1% sodium pyruvate, B27, 25 ng/ml EGF, 1% of the antibiotic-antimycotic solution and 10% FBS. All cells were incubated at 37°C in a humidified atmosphere containing 5% CO2. Culture media were replaced every three days.
(§3) Human astrocytes and glioma U87 grown in 75-cm2 flasks until confluence were washed in PBS, detached and spun down at 4°C. The cell pellet was washed, re-suspended in PBS containing 1% BSA and incubated with 10 µg/mL non-immune rabbit IgGs for 30 min. […] Cells were incubated with an FITC- or PerCP-conjugated goat anti-rabbit secondary antibody (Santa Cruz) diluted 1∶200 and measured in the FL1 (530 nm) or FL3 (670 nm) channel. Cells were analyzed on a FACScalibur flow cytometer (BD Biosciences) operated with the Cell QuestTM software. Samples in which the primary antibodies were omitted were used as control to normalize mean fluorescence levels. […] Each histogram plot was recorded from at least 10,000 gated events.

human UT^c-myc = assay: Cell surface ELISA of UT^c-myc in CHO; conditions: hUII 10^−8 M, 30 min
From the text: For UT epitope-tagged with HA (UT^HA), or c-myc (UT^c-myc), human UT receptor cDNA inserted into pcDNA3.1 (Ressource Center, MI, USA) was amplified and PCR products were subcloned using the EcoRI and XhoI sites of pCMV-HA or pCMV-c-myc. Mutant UT receptor cDNAs were constructed by oligonucleotide-directed mutagenesis (Expand High Fidelity PCR System; Roche) using the human UT receptor cDNA inserted into pcDNA3.1 as a template. Two sets of forward and reverse oligonucleotides were used (Table S2) to introduce stop codons in frame of Leu370, Phe351, Gly332 and Thr319 (to generate UT371, UT351, UT332 and UT319, respectively). PCR products were subcloned using the EcoRI and XhoI sites of pCMV-HA after digestion by the same restriction enzymes. Mutagenesis was confirmed by automated nucleotide sequencing.
Cells were plated at 50 000 cells/well in 96-well plates coated with 0.1 mg/ml poly-L-ornithine (Sigma-Aldrich). […] The cells were washed four times with PBS, a colorimetric alkaline phosphatase substrate was added (SuperSignal ELISA, Thermo scientific, Fisher) and the resulting color reaction was measured using a Viktor multilabel plate reader (PerkinElmer, Courtaboeuf, France). Background absorbance from samples transfected with non-tagged receptors or from cells without first antibodies were systematically measured. […]

[3] = tested on: UT in native human astrocytes; assay: Flow cytometry of cell surface UT in native human astrocytes; conditions: hUII 10^−8 M, 30 min
Experimental: as §2, §3

Compound | GABAAR endocytosis [1] [%] | GABAAR internalization without UT [2] | UT at cell surface, U87 (UT in human U87 glioma) | Effect on cell membrane amounts of UT^c-myc (human UT^c-myc) | UT at cell surface, human astrocytes [3]
O=C(O)C1=CCNCC1 [Iso, isoguvacine] | 39.31±2.84 | remained able to provoke GABAAR removal from the plasma membrane |  |  | 
ETPDCFWKYCV (disulfide) [hUII, human urotensin II, synthesized by solid phase methodology] | 40.29±4.14 | failed to induce GABAAR internalization | still present at the cell surface in U87 | without modifying cell membrane amounts of UT^c-myc | UT internalized in native astrocytes
UII: Urotensin II, species not stated at that place (rUII in astrocytes, hUII in CHO and human cells) |  |  | failed to internalize UT in CHO and U87 | failed to internalize UT in CHO and U87 | led to UT loss from human astrocyte surface
